Experimental data from US10668080B2, “Phosphaplatin compounds as therapeutic agents for treatment of bone or blood cancers” (Phosplatin Therapeutics LLC, priority 2017, dated 2020).

Columns and labels:
de novo Vk*MYC mice = test: Multiple myeloma mouse model, de novo Vk*MYC mice, M-spike levels; format: in vivo
Procedure: (§1) The trans-pyrodach-2 compound is tested on the multiple myeloma mouse model, in particular Vk*MYC mice, which has been reported to be a faithful preclinical model that predicts the clinical activity of drugs in untreated and relapsed MM (Chesi, M., et al., Cancer Cell, 2008, 23, 167-180; Chesi, M., et al., Blood, 2012, 120(2): 376-385). Additionally, the trans-pyrodach-2 compound was tested in mice engrafted with the more aggressive bortezomib resistant Vk12598, and in the multidrug resistant Vk12653 lines, both of which were generated from Vk*MYC mice.
De novo Vk*MYC mice were aged to one year or longer, and M-spike levels were monitored. After the concentrations of the predominant M-spike reached levels of between about 10 and 70 g/L (estimated by densitometry, comparing M-spike to albumin), mice were candidates for starting drug treatment. Mice brought onto the study were dosed either twice weekly (n=2) or thrice (n=1) weekly at a concentration of 100 or 67 mg/kg (R,R)-pyrodach-2, respectively, administered via IP injection after preparation in a phosphate buffer solution. M-spike levels were measured weekly, and post-treatment measurements were compared and normalized to the pre-treatment baseline measurement. Dosing was halted after two weeks of treatment.

Vk12598-engrafted mice = test: Mice engrafted with bortezomib resistant Vk12598 line, survival; format: in vivo; details: 62.5 mg/kg IP twice a week for two weeks; for survival: versus vehicle control (all died by 21 days)
Procedure: as §1
(§2) Additionally, mice were engrafted with the Vk12598 transplantable line and received vehicle (n=11) or (R,R)-pyrodach-2 at a concentration of 62.5 mg/kg (n=12). Mice engrafted with the Vk12653 transplantable line were likewise treated with vehicle (n=10) or (R,R)-pyrodach-2 at 62.5 mg/kg (n=10). Both Vk12598 and Vk12653 engrafted mice were treated twice a week for two weeks via IP injection and monitored via survival and M-spike levels, respectively.

Vk12653-engrafted mice = test: Mice engrafted with multidrug resistant Vk12653 line, M-spike levels; format: in vivo; details: 62.5 mg/kg IP twice a week for two weeks
Procedure: as §1, §2

[1] = LA-ICP-MS imaging, distribution and quantification of platinum in mouse whole-body sections; format: in vivo, CD-1 mice; details: (R,R)-pyrodach-2 or derived Pt; treated mice
Procedure: Five CD-1 mice were dosed with (R,R)-pyrodach-2, intravenous (IV), at a concentration of 90 mg/kg, and one additional mouse was dosed with vehicle (phosphate buffer). After dosing, the (R,R)-pyrodach-2 treated mice were euthanized at different time points (45 min, 3 hr, 12 hr, 24 hr, and 72 hr), and the control mouse was euthanized at 45 minutes post dosing. Subsequently, carcasses were snap frozen at −70° C. Slides of full body sagittal plane cross sections were prepared for the control, 45 min, and 24 hr mice. Laser Ablation Inductively Coupled Plasma Mass Spectrometry (LA-ICP-MS) was then used to scan the slides for the concentration of Pt (an atomic component of (R,R)-pyrodach-2) across the entire full body cross sections. Additional slides were prepared from adjacent positions and hematoxylin & eosin (H&E) stained to map the Pt signal to different organs and tissues.
To detect the Platinum element (Pt) by LA-ICP-MS imaging into mouse whole-body sections at 150 μm spatial resolution covering the entire sections in the different section planes for the animals: Treated 45 min, Treated 24 h and Control 45 min (3 sectioning levels per animal).
The mice were sectioned at 20 μm thickness in 3 different section planes with a cryostat and mounted onto ITO glass slides. […]

[2] = test system: cancerous cell lines, including leukemia and multiple myeloma cell lines resistant to lenalidomide, dexamethasone, and/or bortezomib; test: In vitro experiments on several cancerous cell lines; format: cell-based; details: several different cancerous cell lines
Description: Thus, these bone tissues are exposed to (R,R)-pyrodach-2 (or derived Pt) at concentrations much higher than what is normally needed to induce cancer cell death.

[3] = test system: metastatic castration resistant prostate cancer (mCRPC); test: Phase I study, decline in serum alkaline phosphatase in patient with mCRPC; format: in vivo, human; details: 250 mg/m^2 on days 1, 8, 15 of 28 day cycle
Procedure: In an ongoing phase I solid tumor dose escalation study, R,R-pyrodach-2 (PT-112) was given to a patient with mCRPC at a dose of 250 mg/m^2, dosed on days 1, 8, and 15 of a 28 day cycle. The patient enrolled in the study with elevated serum alkaline phosphatase levels, a sign of metastatic bone disease.
Upon treatment start, the patient experienced a rapid decline in serum alkaline phosphatase levels, a sign of anticancer drug activity at cancerous bone lesions. These measurements were fractionated to validate the proportion of the result emanating from bone (vs. liver). The bone proportion represented the vast majority of the result, validating the relationship to the metastatic bone disease in this patient.

[4] = Phase I solid tumor dose escalation study, safety; format: in vivo, human; details: phase I trial; MTD yet to be determined
Procedure: In an ongoing phase I solid tumor dose escalation study, R,R-pyrodach-2 (PT-112) was given to a patient with mBCC at a dose of 150 mg/m^2, dosed on days 1, 8, and 15 of a 28 day cycle.

O=P1(O)OP(=O)(O)[O][Pt]2([NH][C@@H]3CCCC[C@H]3[NH]2)[O]1 (stereo partly drawn) [(R,R)-pyrodach-2, trans-(R,R)-1,2-cyclohexanediamine-(dihydrogenpyrophosphato) platinum(II)]
results compared with approved MM SoC agents (de novo Vk*MYC mice; M-spike response in Vk*MYC model): comparable or superior | tolerability (de novo Vk*MYC mice; given twice or thrice weekly, Vk*MYC mouse model): well tolerated | complete responses (Vk12598-engrafted mice): durable, complete response lasting over six months | survival (Vk12598-engrafted mice): significant increases in survival | survival (Vk12598-engrafted mice; listed as (R,R)-Pyrodach-2): increased survival | M-spike levels in comparison to vehicle control (Vk12653-engrafted mice): statistically significant reduction | M-spike levels in comparison to vehicle control (Vk12653-engrafted mice; listed as (R,R)-Pyrodach-2): repression of M-spike level elevations | distribution to bone compartments [1]: clearly concentrates in bone compartments at very high concentrations over a long period of time | concentrations sufficient to kill cancer cells [2]: low micromolar | serum alkaline phosphatase levels [3]: rapid decline | highest dose deemed to be safe [4]: 360 mg/m^2
